{
  "source": "paper PMC10989010",
  "about": "“A panel of janus kinase inhibitors identified with anti-inflammatory effects protect mice from lethal influenza virus infection” (Antimicrobial Agents and Chemotherapy, 2024)",
  "key": {"IP-10": {"test_system": "IP-10", "assay": "cells", "type": "cell-based, human", "settings": "Homo sapiens, U-937, 72 h, read-out: IC50 IP-10"}, "lung tissues": {"test_system": "lung tissues", "assay": "Lung tissues histopathology (HE staining) of infected mice", "type": "in vivo", "settings": "300 TCID50; 20 mg/kg/d; day 7 p.i.", "method": "The H&E staining experiments were performed according to the previous report ([46]). Briefly, all the mouse lung tissues were fixed in 4% paraformaldehyde overnight, embedded in paraffin, and cut into 4 µm sections. The sections were stained with hematoxylin solution, treated with hematoxylin differentiation solution and hematoxylin Scott’s tap water bluing, and rinsed with tap water. The sections were dehydrated in 85% ethanol for 5 minutes, followed by 5 minutes in 95% ethanol, and stained with eosin dye for 5 minutes. After dehydration, all the sections were sealed with neutral gum. Each section was examined under the microscope. The slides were randomly read and reviewed for tissue damage, necrosis, and inflammatory cell infiltration."}, "[1]": {"test_system": "neutrophils and macrophages", "assay": "Flow cytometry of BALF cells of infected mice", "type": "in vivo", "settings": "20 mg/kg/d, day 7 p.i.", "method": "The mouse was euthanized and affixed onto a surgical plate, followed by disinfection of the neck using 70% ethanol. An incision was made on the neck skin using scissors to expose the trachea. Subsequently, a 0.2 cm incision was created on the trachea with surgical scissors, and a gavage needle was carefully inserted into it. The trachea was tied around the needle using cotton thread to secure the needle in place. Then, sterile PBS solution loaded in a 1 mL syringe was gently injected into the lung. The thorax of the mouse was massaged to facilitate even distribution of the solution before careful aspiration. Following the removal of the syringe from the needle, lavage fluid obtained from this process was transferred to an ice-cooled 1.5 mL tube for further processing or stored at −80℃ for subsequent analysis. Finally, resuspension and staining of cell pellet obtained after centrifugation of lavage fluid for 10 minutes at 1,000 × g and 4℃ were performed for subsequent analysis using flow cytometry ([45]).\nBALF samples were washed with FACS (fluorescence-activated cell sorting) buffer (2% BSA in PBS), followed by red blood cell lysis using Red Cell Lysis Buffer (Tiangen, Beijing, China). For the surface staining, cells were stained with the following fluorochrome-labeled antibodies (Biolegend, San Diego, USA): PE-Cy7-conjugated Ly6C (clone HK1.4, dilution 1:200), PE-conjugated CD11b (clone M1/70, dilution 1: 200), APC-conjugated Ly6G (clone 1A8, dilution 1: 200), and FITC-conjugated CD11c (clone N418, dilution 1: 100). Cells were washed with PBS twice and counterstained with 7AAD (Biolegend, San Diego, USA) to differentiate apoptotic and dead cells, then analyzed using a BD FACSVerse Cell Analyzer (BD, New Jersey, USA)."}},
  "note": "Where a name gives a salt, the structure may show the parent alone.",
  "data": [
    {"smiles": "CNS(=O)(=O)C[C@H]1CC[C@H](N(C)c2ncnc3[nH]ccc23)CC1", "note": "[Oclacitinib maleate]", "values": [
      {"measurement": "IC50", "setting": "IP-10", "value": 180, "unit": "nM"},
      {"measurement": "lung histopathology (HE staining)", "setting": "lung tissues", "value": "remained primarily intact, with fewer inflammatory cells present"},
      {"measurement": "number of neutrophils and macrophages in the lungs", "setting": "[1]; BALF flow cytometry, versus placebo", "value": "reduce the number of neutrophils and macrophages"},
      {"measurement": "Ly6G- (flow cytometry gate, BALF)", "setting": "[1]; Fig 4B, 300 TCID50", "value": 81.6},
      {"measurement": "Macrophage (flow cytometry gate, BALF)", "setting": "[1]; Fig 4B, 300 TCID50", "value": 8.05},
      {"measurement": "Neurophil (flow cytometry gate, BALF)", "setting": "[1]; Fig 4B, 300 TCID50", "value": 15.2}
    ]}
  ]
}
